The target in test [1] is T1, h-GABA-A α5β3γ2 (Homo sapiens (Human), UniProt P18507+P31644). Briefly: [3H]flumazenil competition binding assay, membranes of HEK293 cells expressing human GABAA receptors. The conditions noted are these: displacement of [3H]flumazenil 0.5 nM, HEK293 cells expressing human receptors, mean of two determinations; read-out: Ki h-GABA-A α5β3γ2. In outline:
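Displacement of [3H]flumazenil from membranes of HEK293 cells transiently expressing human α5β3γ2 receptors, in Krebs-tris buffer pH 7.5. Incubation to equilibrium, 1 h at 4° C., then filtration and scintillation counting. Ki is the mean of two determinations.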
A general note: Loss of bound radioactivity is the signal in a displacement assay; it reports binding, not function.

In test [2] the target is T1, h-GABA-A α5β3γ2. Briefly: Two-electrode voltage clamp electrophysiology in Xenopus oocytes expressing GABAA receptors, modulation of GABA EC20 current. The format is cell-based. The conditions noted are these: Xenopus oocytes; for Efficacy (GABA) %: % modulation of GABA EC20 = 100*(Fold increase−1); for Fold increase h-GABA-A α5β3γ2 oocyte: GABA EC20, test compound at approx. 30 fold its Ki. The essentials: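 Values are % modulation of an EC20 GABA response, derived point by point from the ratio of compound-exposed versus control current traces (extremum taken, 100×(fold−1)). Recordings used oocytes injected with human α5, β3, γ2 mRNA, clamped at −80 mV at room temperature, at least 3 oocytes each.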
A general note: In two-electrode clamp one electrode senses voltage and the other passes current.

Results on 17 molecules are retold here after US20240279218A1 (Hoffmann-La Roche Inc., priority 2016, published 2024).

Regarding `Cc1ccc(-c2noc(C)c2COc2cnc(C(=O)N[C@H]3CC[C@@](C)(O)CC3)cn2)cn1` [Example 104, N-(cis-4-hydroxy-4-methylcyclohexyl)-5-((5-methyl-3-(6-methylpyridin-3-yl)isoxazol-4-yl)methoxy)pyrazine-2-carboxamide], the Ki (commonly a measure of affinity in units of concentration, obtained from inhibition or displacement) in test [1] came out at 66.3 nM. Moreover, in test [2], the “Efficacy (GABA) %” value amounted to 43% and the “Fold increase h-GABA-A α5β3γ2 oocyte” value is recorded as 1.43.
For `Cc1ccc(-c2noc(C)c2COc2ccc(C(=O)N[C@@H]3CCCC(F)(F)[C@H]3O)cn2)cn1` [Example 131, N-((1R,2S)-3,3-difluoro-2-hydroxycyclohexyl)-6-((5-methyl-3-(6-methylpyridin-3-yl)isoxazol-4-yl)methoxy)pyridine-3-carboxamide], the Ki in test [1] was 26 nM. In addition, in test [2], the “Efficacy (GABA) %” value came out at 51% and the “Fold increase h-GABA-A α5β3γ2 oocyte” value worked out at 1.51.
On the same counts, the results for `CCC[C@@H](CO)N1Cc2cc(OCc3c(-c4ccc(C)nc4)noc3C)ncc2C1=O` [Example 13, (S)-2-(1-hydroxypentan-2-yl)-6-((5-methyl-3-(6-methylpyridin-3-yl)isoxazol-4-yl)methoxy)-1H-pyrrolo[3,4-c]pyridin-3(2H)-one] are 14.4 nM, 158% and 2.58.
On the same counts, the results for `Cc1ccc(-c2noc(C)c2COc2ccc(C(=O)NC3(C(F)(F)F)CC3)nn2)cn1` [Example 59, 6-((5-methyl-3-(6-methylpyridin-3-yl)isoxazol-4-yl)methoxy)-N-(1-(trifluoromethyl)cyclopropyl)pyridazine-3-carboxamide] are 10.4 nM, 93% and 1.93.
As to `Cc1ccc(-c2noc(C3CC3)c2COc2ccc(C(=O)NC3CCOCC3)cn2)cn1` [Example 6, 6-((5-cyclopropyl-3-(6-methyl-3-pyridyl)isoxazol-4-yl)methoxy)-N-tetrahydropyran-4-yl-pyridine-3-carboxamide], in test [1], the Ki was found to be 54.1 nM. Besides, in test [2], the “Efficacy (GABA) %” value stood at 167% and the “Fold increase h-GABA-A α5β3γ2 oocyte” value was 2.67.
On the same counts, the results for `Cc1ccc(-c2noc(C)c2COc2ccc(C(=O)N[C@@H]3CCCC[C@@H]3O)nn2)cn1` [Example 27, N-((1R,2S)-2-hydroxycyclohexyl)-6-((5-methyl-3-(6-methylpyridin-3-yl)isoxazol-4-yl)methoxy)pyridazine-3-carboxamide] are 12.3 nM, 54% and 1.54.
Taken in the same sequence, the figures for `Cc1ccc(-c2noc(C)c2COc2ccc(C(=O)N3CCC34COC4)nn2)cn1` [Example 63, (6-((5-methyl-3-(6-methylpyridin-3-yl)isoxazol-4-yl)methoxy)pyridazin-3-yl)(6-oxa-1-azaspiro[3.3]heptan-1-yl)methanone] were 4.6 nM, 79% and 1.79.
Taken in the same sequence, the figures for `Cc1ccc(-c2noc(C)c2COc2ccc(C(=O)N[C@@H]3CCCOC3)nn2)cn1` [Example 99, (R)-6-((5-methyl-3-(6-methylpyridin-3-yl)isoxazol-4-yl)methoxy)-N-(tetrahydropyran-3-yl)pyridazine-3-carboxamide] were 6.8 nM, 73% and 1.73.
For `Cc1ccc(-c2noc(C)c2COc2cnc(C(=O)N[C@H]3CC[C@@H](C(F)(F)F)CC3)cn2)cn1` [Example 102, 5-((5-methyl-3-(6-methylpyridin-3-yl)isoxazol-4-yl)methoxy)-N-(cis-4-(trifluoromethyl)cyclohexyl)pyrazine-2-carboxamide], in test [1], the Ki is 20.7 nM. Further, in test [2], the “Efficacy (GABA) %” value was 21% and the “Fold increase h-GABA-A α5β3γ2 oocyte” value came to 1.21.
On the same counts, the results for `Cc1ccc(-c2noc(C)c2COc2cc3c(cn2)C(=O)N(C2CC4(COC4)C2)C3)cn1` [Example 117, 6-((5-methyl-3-(6-methylpyridin-3-yl)isoxazol-4-yl)methoxy)-2-(2-oxaspiro[3.3]heptan-6-yl)-1H-pyrrolo[3,4-c]pyridin-3(2H)-one] are 15.6 nM, 99% and 1.99.
`Cc1ccc(-c2noc(C)c2COc2cc3c(cn2)C(=O)N(C)C3)cn1` [Example 10, 2-methyl-6-((5-methyl-3-(6-methylpyridin-3-yl)isoxazol-4-yl)methoxy)-1H-pyrrolo[3,4-c]pyridin-3(2H)-one]: the Ki in test [1] came out at 18.9 nM. Also, in test [2], the “Efficacy (GABA) %” value was determined as 80% and the “Fold increase h-GABA-A α5β3γ2 oocyte” value is recorded as 1.8.
On the same counts, the results for `Cc1ccc(-c2noc(C)c2COc2ccc(C(=O)NC(C)(CO)CO)nn2)cn1` [Example 147, N-(1,3-dihydroxy-2-methylpropan-2-yl)-6-((5-methyl-3-(6-methylpyridin-3-yl)isoxazol-4-yl)methoxy)pyridazine-3-carboxamide] are 9.6 nM, 48% and 1.48.
Taken in the same sequence, the figures for `Cc1ccc(-c2noc(C)c2COc2ccc(C(=O)N3CCC(F)(F)CC3)nn2)cn1` [Example 53, (4,4-difluoropiperidin-1-yl)(6-((5-methyl-3-(6-methylpyridin-3-yl)isoxazol-4-yl)methoxy)pyridazin-3-yl)methanone] were 95.8 nM, 80% and 1.8.
As for `Cc1ccc(-c2noc(C)c2COc2ccc(C(=O)N[C@H]3CC[C@H](O)CC3)nn2)cn1` [Example 153, trans-N-(4-hydroxycyclohexyl)-6-((5-methyl-3-(6-methylpyridin-3-yl)isoxazol-4-yl)methoxy)pyridazine-3-carboxamide], in test [1], the Ki came out at 5.5 nM. For the same molecule, in test [2], the “Efficacy (GABA) %” value is on record as 84% and the “Fold increase h-GABA-A α5β3γ2 oocyte” value turned out to be 1.84.
On to `Cc1ccc(-c2noc(C)c2COc2cc3c(cn2)C(=O)N(C2CCS(=O)(=O)CC2)C3)cn1` [Example 91, 2-(1,1-dioxothian-4-yl)-6-((5-methyl-3-(6-methylpyridin-3-yl)-1,2-oxazol-4-yl)methoxy)-1H-pyrrolo[3,4-c]pyridin-3-one], for which the Ki in test [1] came to 5.5 nM. For the same molecule, in test [2], the “Efficacy (GABA) %” value stood at 140% and the “Fold increase h-GABA-A α5β3γ2 oocyte” value was 2.4.
Taken in the same sequence, the figures for `Cc1ccc(-c2noc(C)c2COc2cnc(C(=O)NCCCC(F)(F)F)cn2)cn1` [Example 115, 5-((5-methyl-3-(6-methylpyridin-3-yl)isoxazol-4-yl)methoxy)-N-(4,4,4-trifluorobutyl)pyrazine-2-carboxamide] were 51.6 nM, 139% and 2.39.
With `Cc1ccc(-c2noc(C)c2COc2ccc(C(=O)NC3(C)CC3)nn2)cn1` [Example 76, 6-((5-methyl-3-(6-methylpyridin-3-yl)isoxazol-4-yl)methoxy)-N-(1-methylcyclopropyl)pyridazine-3-carboxamide], in test [1], the Ki turned out to be 9 nM. Further, in test [2], the “Efficacy (GABA) %” value turned out to be 92% and the “Fold increase h-GABA-A α5β3γ2 oocyte” value is on record as 1.92.
